Test results reported in PubChem BioAssay AID1996.
Values after ≈ are worked out from the molar mass of the structure shown.

settings: buffer; pH 7.4; 200.0 µM

SMILES | solubility kinetic
Cc1ccc(Nc2nc(C)c3c(n2)CC(C)CC3=O)c(C)c1 (stereo unspecified) | 1.7 µg/mL (≈ 5.76 µM)
O=C(NC1CC2CCCC(C1)N2Cc1ccccc1)c1cccc(F)c1 (stereo unspecified) | 45.1 µg/mL (≈ 128 µM)
O=C(Nc1cccc([N+](=O)[O-])c1)C1C2/C=C\CCCCC21 (stereo unspecified) | < 0.3 µg/mL
CC1CCC(C(C)C)C(=O)/C1=C/c1ccc(N)cc1 (stereo unspecified) | 3.3 µg/mL (≈ 12.8 µM)
O=C(O)CCCc1ccc(N(CCCl)CCCl)cc1 | > 45.6 µg/mL
CC(C)[C@H](NC(=O)c1ccccc1F)C(=O)NC1CCCCC1 | > 48.1 µg/mL
O=C(NS(=O)(=O)c1ccc(Cl)s1)c1ccccc1 | > 45.3 µg/mL
COc1ccc(Cl)cc1NC(=O)COC(=O)C1CC1 | 34.4 µg/mL (≈ 121 µM)
O=C(CCc1ccccc1)OCC(=O)c1cccc([N+](=O)[O-])c1 | > 47 µg/mL
N=c1oc2ccccc2cc1C(=O)NC1CCCCCC1 | 15.9 µg/mL (≈ 55.9 µM)
CC1CCC(C(C)C)C(OCC(O)CNC(C)(C)C)C1.Cl (stereo unspecified) | > 48.3 µg/mL
CCOc1ccc(OCCn2c(=S)[nH]c3ccccc32)cc1 | 0.9 µg/mL (≈ 2.86 µM)
O=c1[nH]c2cccnc2n1-c1cccc([N+](=O)[O-])c1 | 17 µg/mL (≈ 66.3 µM)
COc1ccc(Cl)cc1C(=O)Nc1nc2ccccc2[nH]1 | 1.2 µg/mL (≈ 3.98 µM)
N#Cc1cc2c(nc1Cl)CCC2 | 20.2 µg/mL (≈ 113 µM)
S=C1NCCNC(=S)NCCOCCOCCOCCN1 | > 50.5 µg/mL
O=c1[nH]c(SCCN2CCOCC2)nc(O)c1-c1ccccc1 | 44.2 µg/mL (≈ 133 µM)
CCN(/C(N)=N/c1nc(C)cc(C)n1)c1ccccc1 | > 40.4 µg/mL
CCOc1ccc2nc(N/C(N)=N/S(C)(=O)=O)nc(C)c2c1 | 2.3 µg/mL (≈ 7.11 µM)
CCOc1ccc(C(=O)N2CCN(c3cccc(Cl)c3)CC2)cc1 | 14.3 µg/mL (≈ 41.5 µM)
CC(=O)Nc1nccc(-c2cc(-c3ccccc3)no2)n1 | 2.1 µg/mL (≈ 7.49 µM)
O=[N+]([O-])c1cccnc1N1CCN(c2ccccc2F)CC1 | 9.6 µg/mL (≈ 31.8 µM)
O=C(NCC1CCCCC1)c1ccc(F)cc1Cl | 20.4 µg/mL (≈ 75.6 µM)
C#CCOC(=O)C[N+](C)(C)CC#Cc1ccccc1.[Cl-] | 43.1 µg/mL
Cc1ccc(CNc2nc(C)cs2)cc1 | 25.3 µg/mL (≈ 116 µM)

SMILES | solubility kinetic
COC(=O)/C=C1\N/C(=N\c2nc(C)cc(C)n2)N(c2ccc(Cl)cc2)C1=O | 57.6 µg/mL (≈ 149 µM)
Cc1ccc(CN2CCSCC2)cc1 | 7.4 µg/mL (≈ 35.7 µM)
O=S(=O)(NCCN1CCOCC1)c1ccc2ccccc2c1 | > 48.1 µg/mL
OC(CNc1ncnc2sccc12)c1ccccc1 (stereo unspecified) | > 40.7 µg/mL
O=C(CS(=O)(=O)c1ccccc1Cl)N1CCOCC1 | 43.8 µg/mL (≈ 144 µM)
CCC(C(=O)Nc1ccc(Cl)cc1)N1CCCC1=O (stereo unspecified) | 41.3 µg/mL (≈ 147 µM)
COc1ccc(OC)c2nc(-c3cccnc3)ccc12 | > 39.9 µg/mL
Cc1cccc(NC(=O)C(C)SCc2ccccc2)c1 (stereo unspecified) | 27.9 µg/mL (≈ 97.8 µM)
CN1CCN(c2nc3ccccc3nc2C(C#N)S(=O)(=O)c2ccccc2)CC1 (stereo unspecified) | > 61.1 µg/mL
CCN(C(=S)NCCOC)c1cccc2ccccc12 | 12.9 µg/mL (≈ 44.7 µM)
Nc1cc(Cl)ccc1Nc1ccncc1 | > 33 µg/mL
CCOc1ccc(N2CC(C(=O)Nc3ccc4c(c3)OCCO4)CC2=O)cc1 (stereo unspecified) | > 57.4 µg/mL
Cc1ccc([N+](=O)[O-])cc1N | 13.5 µg/mL (≈ 88.7 µM)
CN1C(=O)NC(c2ccccc2[N+](=O)[O-])C2=C1CCCC2=O (stereo unspecified) | > 45.2 µg/mL
CCOC(=O)CSc1nnc(CNC(=O)c2cccc(C)c2)n1C | > 52.3 µg/mL
COc1ccc(C(=O)Nc2ccncc2)cc1[N+](=O)[O-] | 36 µg/mL (≈ 132 µM)
O=C(O)C1CCN(C(=O)c2ccc3c(c2)OCO3)CC1 | 36.2 µg/mL (≈ 131 µM)
COc1ccc(NC(=O)c2cccnn2)cc1 | > 34.4 µg/mL
CC1CCC(N2CCNCC2)CC1.Cl (stereo unspecified) | > 32.8 µg/mL
Cc1ccc2cccc(OCC(=O)NCCC3=CCCCC3)c2n1 | 46.5 µg/mL (≈ 143 µM)
O=C(O)CN1C(=O)C2(OCCO2)c2cc(Br)ccc21 | > 49.2 µg/mL
CCC(C)NC(=O)CN1C(=O)NC2(CCOc3ccccc32)C1=O (stereo unspecified) | > 49.7 µg/mL
O=C(c1ccccc1)C1CN(Cc2ccccc2)CCC1(O)c1ccccc1 (stereo unspecified) | 10.4 µg/mL (≈ 28 µM)
COC(=O)C(Cc1ccc(O)cc1)NC(=O)CCc1ccco1 (stereo unspecified) | 46.5 µg/mL (≈ 147 µM)
COc1ccc(CCC(=O)Nc2ncc(C)s2)cc1 | 4.1 µg/mL (≈ 14.8 µM)

SMILES | solubility kinetic
Cc1onc(-c2ccccc2)c1NC(=O)Nc1ccc(OC(F)F)cc1 | 7 µg/mL (≈ 19.5 µM)
CC(CCN1CCOCC1)c1ccccc1 (stereo unspecified) | 19.3 µg/mL (≈ 88 µM)
NCCNC(=O)c1c(NC(=O)c2ccccc2)sc2c1CCCC2 | 41.1 µg/mL (≈ 120 µM)
O=C(Nc1ccc(-c2cn3c(n2)SCC3)cc1)c1ccco1 | 24.1 µg/mL (≈ 77.4 µM)
COc1ccc(S(=O)(=O)NCCC(=O)NC2CCCCC2C)cc1[N+](=O)[O-] (stereo unspecified) | 20.1 µg/mL (≈ 50.3 µM)
CCOC(=O)C1CCN(CC(=O)N2CCc3ccccc32)CC1 | > 47.5 µg/mL
Cc1nc(OCC(C)C)c2sc3nc4c(cc3c2n1)COC(C)(C)C4 | 14.6 µg/mL (≈ 40.8 µM)
CCN1/C(=C\C(=S)Nc2ccccc2)Sc2ccccc21 | 20.7 µg/mL (≈ 66.2 µM)
C[C@@H](C(=O)Nc1ccc(OC(F)F)c(Cl)c1)N1C(=O)C2CC=CCC2C1=O (stereo partly specified) | > 59.8 µg/mL
O=C(/C(=C/c1cccnc1)n1ccnc1)c1ccc(Cl)cc1Cl | > 51.6 µg/mL
CCn1c(=O)c([N+](=O)[O-])c(NCCCn2ccnc2)c2ccccc21 | > 51.2 µg/mL
CCc1ccc(NC(=O)COc2ccc3c(c2)OCO3)cc1 | 4.8 µg/mL (≈ 16 µM)
O=C(Nc1ccc(Cl)c(S(=O)(=O)N2CCOCC2)c1)c1cccs1 | 3.2 µg/mL (≈ 8.27 µM)
COC(=O)c1c(C)[nH]c(C=Nc2ccc(OC)cc2)c1C | 30 µg/mL (≈ 105 µM)
CC(=O)N1CCN(C(=S)NC(=O)c2ccc(F)cc2)CC1 | > 46.4 µg/mL
O=C(CN1CCN(Cc2ccc(F)cc2)CC1)Nc1ccccc1F | > 51.8 µg/mL
CC1C(=O)N2CCCc3cc(NC(=O)CC(C)(C)C)cc1c32 (stereo unspecified) | 39.7 µg/mL (≈ 132 µM)
CC(C)CC(=O)N1CCN(Cc2cccc(Cl)c2)CC1 | 24.8 µg/mL (≈ 84.1 µM)
O=C(CCl)c1cc2c3c(c1)CC(=O)N3CCC2 | > 37.5 µg/mL
COc1ccc(C(=O)NC2CC3CCCC(C2)N3CC(C)C)cc1 (stereo unspecified) | > 49.6 µg/mL
O=C1c2ccccc2CN1c1ccccc1 | 12.4 µg/mL (≈ 59.3 µM)
O=C(CNc1ccccc1C(=O)O)c1ccccc1 | 36.3 µg/mL (≈ 142 µM)
COc1ccccc1CC(=O)N1CCN(c2ccccc2F)CC1 | 46.8 µg/mL (≈ 143 µM)
COc1ccc(-c2csc(NC(=O)CN3C(=O)C4CC=CCC4C3=O)n2)cc1OC (stereo unspecified) | 16 µg/mL (≈ 37.4 µM)
Cc1ccc(S(=O)(=O)CC(=O)Nc2ccc(Cl)cn2)cc1 | 5.4 µg/mL (≈ 16.6 µM)

SMILES | solubility kinetic
O=C(Nc1ccc(S(=O)(=O)N2CCc3ccccc32)cc1)C(F)(F)F | > 55.6 µg/mL
Cc1ccc(-n2c(C)c(C)c3c(NCCN(C)C)ncnc32)cc1 | 37.4 µg/mL (≈ 116 µM)
CC1(C)CC2CC(C)(CN2C(=O)c2cc(-c3ccccc3)on2)C1 (stereo unspecified) | 3.3 µg/mL (≈ 10.2 µM)
NC(=O)CSc1nnc(NC(=O)c2ccc(Br)o2)s1 | > 54.5 µg/mL
CCN(CC(=O)N1CCCC1)S(=O)(=O)c1ccc(F)cc1 | 44.1 µg/mL (≈ 140 µM)
O=C(/C=C/c1ccccc1)Oc1coc(CSc2ncccn2)cc1=O | 10.2 µg/mL (≈ 27.8 µM)
Nc1ccccc1N=Cc1ccc(-c2cccc(Cl)c2)o1 | < 0.3 µg/mL
C=CCn1c(NC(=O)c2ccccc2)nc2ccccc21 | 0.8 µg/mL (≈ 2.88 µM)
O=C(NC1CCN(Cc2ccccc2)CC1)c1ccccc1Cl | 35.7 µg/mL (≈ 109 µM)
COC(=O)CN1C(=O)NC2(CCCc3ccccc32)C1=O (stereo unspecified) | > 43.2 µg/mL
CCC(C)C(=O)Nc1ccc(S(=O)(=O)N2CCCC2)cc1 (stereo unspecified) | 42.3 µg/mL (≈ 136 µM)
N#CC(c1nc2ccccc2nc1N1CCOCC1)S(=O)(=O)c1ccccc1 (stereo unspecified) | > 59.2 µg/mL
COc1ccc(CNC(=O)CSc2nc3ccccc3n2C(C)=O)cc1 | 21.2 µg/mL (≈ 57.4 µM)
COc1ccc(C(=O)Cn2cc[n+](C)c2)cc1.[Br-] | > 46.7 µg/mL
O=C1N(Cc2ccc(F)cc2)CCN1c1ccc(F)cc1 | 29.3 µg/mL (≈ 102 µM)
CC(C)N(C(=O)Nc1ccc2nsnc2c1)C(C)C | > 41.8 µg/mL
O=C(O)C1CCCN1C(=O)C12CC3CC(CC(C3)C1)C2 (stereo unspecified) | > 41.6 µg/mL
CC1(C)CC(=O)C2=C(C1)OC(N)=C(C#N)C2c1ccoc1 (stereo unspecified) | > 42.6 µg/mL
O=C(Nc1ccc(F)cc1F)c1ccc(S(=O)(=O)NCc2ccco2)cc1 | 10.5 µg/mL (≈ 26.8 µM)
CC1SCC(NC(=O)c2ccccc2Cl)CS1 (stereo unspecified) | > 43.2 µg/mL
CN(C)/C=C(\C#N)S(=O)(=O)c1ccc(Cl)cc1 | 37.7 µg/mL (≈ 139 µM)
COc1cccc(N2CC(C)Cn3c2nc2c3c(=O)[nH]c(=O)n2C)c1 (stereo unspecified) | 22.7 µg/mL (≈ 66.5 µM)
COc1ccc(C(=O)NCc2ccc3c(c2)OCO3)c(OC)c1 | > 47.3 µg/mL
COc1ccccc1NC(=O)CC(c1ccc(F)cc1)c1ccco1 (stereo unspecified) | 21.2 µg/mL (≈ 62.5 µM)
N#Cc1ccc(C(=O)N2CCN(C(=O)C3CCCO3)CC2)cc1 (stereo unspecified) | > 47 µg/mL

SMILES | solubility kinetic
Cc1cc(C(=O)CCC(=O)N2CCN(c3ccccc3)CC2)c(C)s1 | 46.5 µg/mL (≈ 130 µM)
CC(=O)Nc1ccc(S(=O)(=O)Nc2ccc3c(c2)OCO3)cc1 | > 50.2 µg/mL
CC(=O)c1sc2nsc(SCCN3CCCC3)c2c1N | 46.7 µg/mL (≈ 143 µM)
Cc1cc(C)n(CC(=O)NCc2ccccc2)c(=O)c1C#N | 43.5 µg/mL (≈ 147 µM)
O=C(OCc1cnc(Cl)s1)c1cccs1 | 26.5 µg/mL (≈ 102 µM)
O=C(Nc1cc(Cl)cc(Cl)c1)c1coc(=O)c(Br)c1 | 5.1 µg/mL (≈ 14 µM)
Cc1ccc(NS(=O)(=O)c2ccc3c(c2)n(C)c(=O)n3C)cc1 | 6.3 µg/mL (≈ 19 µM)
O=C(Nc1nc2ccc(F)cc2s1)Oc1ccccc1 | 1.7 µg/mL (≈ 5.9 µM)
Cc1cc(NC(=O)c2ccc(C)c(C)c2)no1 | 3.6 µg/mL (≈ 15.6 µM)
C=C(C)C(=O)Oc1ccc(N2C(=O)CCC2=O)cc1 | > 38.9 µg/mL
Cc1ccc(NC(=S)NC2CCSc3ccccc32)cc1 (stereo unspecified) | 2.7 µg/mL (≈ 8.59 µM)
O=[N+]([O-])c1ccc(S(=O)(=O)Nc2ccc3c(c2)OCCO3)cc1 | 45.2 µg/mL (≈ 134 µM)
CC(C)Oc1ccc(C(=O)NCC(=O)O)cc1 | > 35.6 µg/mL
CN1CCN(S(=O)(=O)c2csc(C(N)=O)c2)CC1 | > 43.4 µg/mL
ClCC1NCC(c2ccccc2Cl)c2c1[nH]c1ccccc21 (stereo unspecified) | 19.3 µg/mL (≈ 58.3 µM)
CC(CN1C(C)CCCC1C)OC(=O)c1ccc(F)cc1.Cl (stereo unspecified) | 46.5 µg/mL
O=C(COC(=O)c1cnccn1)Nc1cc(S(=O)(=O)N2CCOCC2)ccc1Cl | > 66.1 µg/mL
Cc1cc(C)c(C)c(S(=O)(=O)N2CCSCC2)c1C | < 0.6 µg/mL
Cc1ccccc1N=C(NO)c1cccnc1 | > 34.1 µg/mL
CCOc1ccccc1CNC(=O)CCc1cn(C)c2ccccc12 | 3.1 µg/mL (≈ 9.21 µM)
Nc1cccnc1Sc1ccccc1 | 28 µg/mL (≈ 138 µM)
